Assay results: BindingDB's records for doi:10.1074/jbc.M113.529529 (The University of Tokyo, 2014)

What was measured:
Assay in all cases: β-Gal Inhibitory Assay
Settings in all cases: pH 4.5; 37 °C
[1] = biological target: T1, Beta-galactosidase [24-677,I51T] (Human, UniProt P16278, I51T)
T1 construct: 24-677
Method: (§1) β-Gal activity was measured by using 4-methylumbelliferyll-β-D-galactopyranoside in buffer B (0.15 M sodium citrate, pH 4.5, and 0.2 M NaCl) as a substrate, and incubating at 37 °C for 6 min.

[2] = biological target: T2, Beta-galactosidase [24-677,R201C] (Human, UniProt P16278, R201C)
T2 construct: 24-677
Method: as §1

[3] = biological target: T3, Beta-galactosidase [24-677] (Human, UniProt P16278)
T3 construct: 24-677
T3 sequence (P16278 whole entry): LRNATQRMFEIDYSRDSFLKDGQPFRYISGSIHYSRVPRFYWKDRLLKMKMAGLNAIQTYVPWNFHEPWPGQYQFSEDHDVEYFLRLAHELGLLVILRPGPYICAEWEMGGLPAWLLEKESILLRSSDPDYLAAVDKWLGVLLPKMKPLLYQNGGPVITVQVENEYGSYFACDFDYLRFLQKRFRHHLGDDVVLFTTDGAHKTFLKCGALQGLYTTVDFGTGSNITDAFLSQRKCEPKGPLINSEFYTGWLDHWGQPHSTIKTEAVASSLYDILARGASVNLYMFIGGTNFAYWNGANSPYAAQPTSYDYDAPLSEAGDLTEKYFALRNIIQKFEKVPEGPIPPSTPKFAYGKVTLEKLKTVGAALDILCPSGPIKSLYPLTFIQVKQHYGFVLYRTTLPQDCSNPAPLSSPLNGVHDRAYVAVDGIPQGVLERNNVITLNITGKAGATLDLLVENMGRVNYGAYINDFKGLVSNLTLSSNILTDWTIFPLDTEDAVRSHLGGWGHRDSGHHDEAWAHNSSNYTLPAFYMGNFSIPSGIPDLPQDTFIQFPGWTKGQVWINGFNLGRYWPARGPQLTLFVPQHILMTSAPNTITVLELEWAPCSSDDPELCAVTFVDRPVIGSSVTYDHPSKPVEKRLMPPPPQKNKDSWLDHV
Method: as §1

SMILES	Ki [1] [µM]	Ki [2] [µM]	Ki [3] [µM]
CCCC/N=C1/SCC2[C@H](O)[C@H](O)C(O)[C@@H](O)N12 (stereo partly drawn) [5N,6S-(N'-butyliminomethylidene)-6-thiogalactonojirimycin]	320	320	253
CCCCCCCCN[C@H]1C=C(CO)[C@@H](O)[C@H](O)[C@H]1O [NOEV]	1.2	0.94	1.1
CCCC/N=C1\SC[C@@H]2[C@H](O)[C@H](O)[C@@H](O)CN12 [5N,6S-(N'-butyliminomethylidene)-6-thio-1-deoxygalactonojirimycin]	68.8	53.3	68.3

Continued, values first:

Ki [1] [µM]	Ki [2] [µM]	Ki [3] [µM]	SMILES
4910	5610	4140	OC[C@H]1OC(O)[C@H](O)[C@@H](O)[C@H]1O (stereo not given in full) [Galactose]
329	388	373	CCCCNC(=S)N1CC(O)[C@@H](O)[C@@H](O)C1CO (stereo not given in full) [N-(N'-butylthiocarbamoyl)-1-deoxygalactonojirimycin]
